Results: patent publication US20110070171A1, “1-tert-Butylcyclohexanecarboxamide and uses thereof as cooling compounds” (priority 2009, published 2011)

Legend:
Assay type in all cases: in vivo
[1] = Flavor evaluation, tasted in water; details: tasted in water at 10 ppm
Excerpt: Based on this flavor evaluation, it is indicative that the Structure I and Structure II of our invention are useful for augmenting, enhancing or imparting a taste or cooling or refreshing effect in or to a cosmetic, skin care product, lip gloss, hair care product, cologne, shaving balm, after-shave lotion, dairy product, fruit ice preparation, confectionery, mouth and throat lozenges, cough mixtures, decongestants, antacids, oral analgesics or other medicinal products, chewing gum, candy (including hard candy and soft candy), fondants, toothpaste, mouthwashes, mineral water, alcoholic beverage, non-alcoholic beverage, powdered beverage, or other foodstuff as a result of adding to a cosmetic, skin care product, lip gloss, hair care product, cologne, shaving balm, after-shave lotion, dairy product, fruit ice preparation, confectionery, lozenges, cough mixtures, decongestants, antacids, oral analgesics or other medicinal product, chewing gum, candy, fondants, toothpaste, mouthwashes, mineral water, alcoholic beverage, non-alcoholic beverage, powdered beverage, or other foodstuff, a taste or cooling or refreshing effect augmenting, enhancing or imparting quantity and concentration of Structure I and Structure II.

[2] = Evaluation of cooler mixed with fondant
Excerpt: In this example, the Structure I and II were mixed with a fondant, commercially available from Confectionary House, Troy, N.Y., at levels listed in Table 1.

[3] = Chewing gum profiled by trained descriptive analysis panel; details: level 0.20%
Description: The following gum base formulation was prepared: […]
The orange flavor is commercially available from IFF. The gum base, Hades-T is commercially available from Cafosa Gum, Barcelona Spain.
Structure I and II by itself at levels detailed in the Tables below was blended with the gum base in a Sigma mixer. The resultant chewing gum blend was then manufactured into strips 1 inch in width and 0.1 inches in thickness. These strips were cut into lengths of 3 inches each.
Samples were profiled by a highly trained descriptive analysis panel. The ballot consisted of the following terms: Total impact, total mint, cooling-mouth closed, cooling-breath in, nasal cooling—breathe in, throat irritation, bitterness, tongue irritation, numbing. Each attribute was rated at discrete time points including 1 minute, 3 minutes, 5 minutes, 10 minutes, 20 minutes, and 30 minutes.

| Compound | Taste description (cooling) [1] | COMMENTS (cooling evaluation in fondant) ([2]; 50 ppm) | COMMENTS (cooling evaluation in fondant) ([2]; 200 ppm) | Time and Evaluation (cooling in chewing gum) ([3]; 0-1 min) | Time and Evaluation (cooling in chewing gum) ([3]; 1-3 min) | Time and Evaluation (cooling in chewing gum) ([3]; 3-5 min) | Time and Evaluation (cooling in chewing gum) ([3]; 5-10 min) | Time and Evaluation (cooling in chewing gum) ([3]; 10-20 min) | Time and Evaluation (cooling in chewing gum) ([3]; 20-30 min) |
| --- | --- | --- | --- | --- | --- | --- | --- | --- | --- |
| CC(C)(C)C1(C(=O)NC2CC2)CCCCC1 [Structure I, 1-tert-butyl-N-cyclopropylcyclohexanecarboxamide] | gradual onset cooling | Slight irritation in rear of throat, slight cooling | Moderate cooling, consistent, and slight tingle. |  |  |  |  |  |  |
| COCCNC(=O)C1(C(C)(C)C)CCCCC1 [Structure II, 1-tert-butyl-N-[2-methoxy-ethyl]cyclohexanecarboxamide] | wet cardboard, slightly cooling | Slight bitterness, very little cooling. | Good Cooling low to moderate, slight throat | no perceivable cooling slightly bitter, | Slight cooling with slight tingle on tongue | full mouth cooling not very intense, slight | slight residual cooling very weak | still slight cooling, slight tingle | cooling diminished very weak, very mild |
